We go through 13 molecules from paper PMC5442318, “Hundreds of dual-stage antimalarial molecules discovered by a functional gametocyte screen” (Nature Communications, 2017).

The subject of data set [1] is P. falciparum asexual blood stages. The following applies: TCAMS data; ref 1 (Gamo et al., 2010); read-out: Pf Asexual blood stages XC50; cited from earlier work.
Data set [2] concerns P. falciparum stages IV–V gametocytes. Kind of data set: Gametocytocidal ATP-depletion assay (gametocyte ATP bioluminescence). The class given is cell-based, Plasmodium falciparum. In outline:
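Read-out is luciferase luminescence of parasite ATP (BacTiter-Glo), standing in for viability. Double-purified mature stage IV–V gametocytes, 12,500 per well, were exposed 48 h at 37 °C in low-O2 gas; screening concentration 2 μM.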

The subject of data set [3] is P. falciparum stage V female gametocytes. The data set can be described thus: P. falciparum female gametocyte activation assay (Pf FGAA), 24 h or 48 h preincubation, Pfs25 expression readout. The following applies: mean; read-out: Gametocytes mean Pf FGAA IC50. It is filed as cell-based, Plasmodium falciparum NF54. In outline: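 Female activation, triggered by xanthurenic acid and cooling, was scored by imaging Cy3-labelled anti-Pfs25 female gametes after 24 h at 26 °C. Beforehand, purified NF54 stage V gametocytes had been incubated with compound for either 24 h or 48 h (37 °C, 3% O2). Values are pIC50 from full-curve regression.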

The next data set concerns HepG2 cells. Kind of data set: HepG2 cytotoxicity assay. It is filed as cell-based. The following applies: mean. In outline: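 Cell viability is measured by CellTiter-Glo luminescence. Signal is developed at room temperature and read 10 min after adding the reagent, with plates and reagent first equilibrated for 30 min.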

As for `C#CCCOc1ccc2ccccc2c1CNCCCCCCNCc1c(OCCC#C)ccc2ccccc12` [TCMDC-137832], the IC50 was 810 nM in data set [1] and 920 nM in data set [3]. For the same molecule, the “Gametocytes mean ATP inhibition at 2µM (%)” value in data set [2] came to 12.79%. Also, the “HepG2 cells mean TOX50” value in the data set with HepG2 cells was determined as 4.79 µM.

For `COc1c(CNCCCCCCNCc2c(OC)c(OC)c3ccccc3c2OC)c(OC)c2ccccc2c1OC.CS(=O)(=O)O` [TCMDC-137837], the results for the IC50 in data set [1] and in data set [3] were 960 nM and 3690 nM, respectively. The “Gametocytes mean ATP inhibition at 2µM (%)” value in data set [2] amounted to 18.67%. Moreover, the “HepG2 cells mean TOX50” value in the data set on HepG2 cells was 4.42 µM.

For the molecule `C#CCOc1ccc2ccccc2c1CNCCCCCCNCc1c(OCC#C)ccc2ccccc12.CS(=O)(=O)O` [TCMDC-137838], the IC50 in data set [1] was 780 nM; in data set [3] it was 1050 nM. In addition, in data set [2], the “Gametocytes mean ATP inhibition at 2µM (%)” value was 77.84%. Moreover, the “HepG2 cells mean TOX50” value in the data set on HepG2 cells was found to be 2.92 µM.

Consider `Nc1nc(N)c2c(ccc3[nH]c(-c4ccccc4Cl)nc32)n1` [TCMDC-137840], for which the IC50 is 230 nM in data set [1] and 4420 nM in data set [3]. Further, the “Gametocytes mean ATP inhibition at 2µM (%)” value in data set [2] was found to be 22.85%. Further, the “HepG2 cells mean TOX50” value with HepG2 cells is reported as 2.32 µM.

Regarding `COc1cc2ccccc2c(OC)c1CCNCCCCNCCc1c(OC)cc2ccccc2c1OC.CS(=O)(=O)O` [TCMDC-137842], the IC50 in data set [1] is 890 nM; in data set [3] it was 1240 nM. In addition, the “Gametocytes mean ATP inhibition at 2µM (%)” value in data set [2] is recorded as 60.27%. Besides, the “HepG2 cells mean TOX50” value in the data set with HepG2 cells is 4.17 µM.

For `CCCCOc1cc(OC)c2ccccc2c1CCNCCCCNCCc1c(OCCCC)cc(OC)c2ccccc12.CS(=O)(=O)O` [TCMDC-137845], the IC50 is 1050 nM in data set [1] and 760 nM in data set [3]. In addition, in data set [2], the “Gametocytes mean ATP inhibition at 2µM (%)” value stood at 95.21%. In the data set with HepG2 cells, the “HepG2 cells mean TOX50” value was found to be 1.97 µM.

Regarding `CCCCOc1c(CCNCCCCNCCc2cc(OC)c3ccccc3c2OCCCC)cc(OC)c2ccccc12.CS(=O)(=O)O` [TCMDC-137848], the IC50 in data set [1] was 930 nM; in data set [3], 610 nM. Also, the “Gametocytes mean ATP inhibition at 2µM (%)” value in data set [2] worked out at 84.96%. In addition, the “HepG2 cells mean TOX50” value in the data set on HepG2 cells is 1.97 µM.

Regarding `CS(=O)(=O)O.FC(F)(F)COc1ccc(CNCCCCCCNCc2ccc(OCC(F)(F)F)c3ccccc23)c2ccccc12` [TCMDC-137853], the IC50 is 400 nM in data set [1] and 630 nM in data set [3]. Moreover, the “Gametocytes mean ATP inhibition at 2µM (%)” value in data set [2] came to 94.02%. The “HepG2 cells mean TOX50” value in the data set with HepG2 cells was found to be 2.46 µM.

`COc1c(CCNCCCCNCCc2cc(Cl)c3ccccc3c2OC)cc(Cl)c2ccccc12.CS(=O)(=O)O` [TCMDC-137869]: the results for the IC50 in data set [1] and in data set [3] were 170 nM and 330 nM, respectively. The “Gametocytes mean ATP inhibition at 2µM (%)” value in data set [2] was 96.85%. The “HepG2 cells mean TOX50” value in the data set with HepG2 cells turned out to be 1.78 µM.

Take `CN(CCCNCc1ccc2ccccc2c1)CCCNCc1ccc2ccccc2c1.Cl` [TCMDC-137908]: the IC50 is 390 nM in data set [1] and 90 nM in data set [3]. In data set [2], the “Gametocytes mean ATP inhibition at 2µM (%)” value came out at 72.34%. Also, in the data set with HepG2 cells, the “HepG2 cells mean TOX50” value is reported as 5.01 µM.

`COc1ccc2ccccc2c1CNCCCCCCNCc1c(OC)ccc2ccccc12.Cl` [TCMDC-137915]: the IC50 was 710 nM in data set [1] and 700 nM in data set [3]. Besides, the “Gametocytes mean ATP inhibition at 2µM (%)” value in data set [2] amounted to 20.95%. Besides, the “HepG2 cells mean TOX50” value with HepG2 cells turned out to be 4.22 µM.

With `COc1ccc2c(c1)CC(C)(C)NC2CCCCCCCCC1NC(C)(C)Cc2cc(OC)ccc21.O=C(O)C(=O)O` (stereo not shown) [TCMDC-137935], the values for the IC50 in data set [1] and in data set [3] were 1300 nM and 1470 nM, respectively. In addition, in data set [2], the “Gametocytes mean ATP inhibition at 2µM (%)” value turned out to be 1.39%. Moreover, the “HepG2 cells mean TOX50” value with HepG2 cells was determined as 5.62 µM.

Consider `CCOc1cc(CNCCCCCCNCc2cc(OCC)c(OCC)c3ccccc23)c2ccccc2c1OCC.CS(=O)(=O)O` [TCMDC-137939], for which the IC50 was 280 nM in data set [1] and 1780 nM in data set [3]. The “Gametocytes mean ATP inhibition at 2µM (%)” value in data set [2] is reported as 5.51%. For the same molecule, in the data set with HepG2 cells, the “HepG2 cells mean TOX50” value came out at 2.00 µM.
